Patent publication US9868977B2, “Red-shifted luciferins and methods of using same” (PROMEGA CORPORATION, priority 2013, dated 2018)

Key:
Assay type in all cases: biochemical
esterase = test: Effect of esterase on bioluminescence of ester pro-substrate; settings: serial dilutions; luciferin detection reagent with esterase, with or without UltraGlo luciferase
Description: Reconstitution buffer with esterase (10 ml; Promega Cat. No. V144A) and luciferin detection reagent (Promega; V859A) were mixed and incubated at room temperature for 30 minutes (“Luciferin Detection Reagent”). UltraGlo® luciferase (210 ul of 5.7 mg/ml; Promega) was then added to 3 mls of the luciferin detection reagent.
Serial dilutions of PBI-5045 (isonaphtholuciferin methyl ester) were made in a solution of 100 mM HEPES/10 mM MgSO4. 50 ul of each serially diluted PBI-5045 was then added to a well of a white, 96-well assay plate (n=6). Then, either 50 ul luciferin detection reagent or luciferin detection reagent with UltraGlo® luciferase was added to the wells. Luminescence was detected on a GloMax® Multi+ luminometer (Promega).
FIGS. 4A and 4B show the effects of esterase on PBI-5045.

Leu-aminopeptidase = test: Titration of Leu-aminopeptidase with pro-substrate and luciferin detection reagent; settings: pro-substrate 20, 2 or 0.2 uM; Leu-aminopeptidase serially diluted; luminescence every 5 min for 90 min
Description: To a lyophilized vial of luciferin detection reagent (Promega; V859A), 10 ml of a solution of 100 mM HEPES pH 7.5/10 mM MgSO4 was added and allowed to equilibrate for 30 minutes at room temperature.
A 20 uM solution of Leu-luciferin and a 20 uM solution of PBI-5044 were prepared in a solution of 100 mM HEPES/0.1% Prionex. The 20 uM solution of PBI-5044 was then serially diluted in the HEPES/Prionex solution to 2 uM and 0.2 uM solutions.
1 U/ml Leu-aminopeptidase (Sigma) was serially diluted (FIG. 1) into each of the luciferin dilutions (20 uM Leu-luciferin, 20 uM PBI-5044, 2 uM PBI-5044 or 0.2 uM PBI-5044). For example, 50 ul 1 U/ml Leu-aminopeptidase was added to 450 ul luciferin dilution (final concentration of Leu-aminopeptidase was 0.1 U/ml). Leu-aminopeptidase was then serially diluted by adding 150 ul Leu-aminopeptidase solution to 350 ul of each prepared luciferin derivative.
In triplicate, 50 ul of each serially diluted Leu-aminopeptidase/luciferin sample was added to a well of a white, 96-well assay plate (Costar 3355), and 50 ul of the equilibrated luciferin detection reagent added to each sample. Luminescence was detected every 5 minutes for 90 minutes on a GloMax® Multi luminometer (Promega) at room temperature.

Aminopeptidase = test: Multiplexing of Leu-luciferin and PBI-5044 with filtered luminescence; settings: 20 uM Leu-Luciferin/20 uM PBI-5044; 630 long pass and 525 short pass filters
Description: To a lyophilized vial of luciferin detection reagent (Promega; V859A), 10 ml of a solution of 100 mM HEPES pH 7.5/10 mM MgSO4 was added (LDR) and allowed to equilibrate for 30 minutes at room temperature.
Aminopeptidase was diluted to 0.01 u/ml into a solution containing 100 mM HEPES pH 7.5 and 0.1% Prionex. The following solutions were then prepared in the aminopeptidase dilution: • 1. 20 uM Leu-Luciferin, • 2. 20 uM PBI-5044, • 3. 20 uM Leu-Luciferin/20 uM PBI-5044
In triplicate, 50 ul of each of the above mixtures (1-3) was added to 50 ul of LDR and incubate for 15 minutes. Luminescence was measured on a GloMax® 96 luminometer equipped with a 630 long pass filter (Edmond Optics 253253) and a 525 short pass filter (Edmond Optics 84694).

| Compound | luminescence in presence of esterase (reporting esterase activity) (esterase) | bioluminescent response as a function of added aminopeptidase (reporting protease activity) (Leu-aminopeptidase) | separation of bioluminescence from luciferin by filters (multiplexing) (Aminopeptidase) |
| --- | --- | --- | --- |
| COC(=O)C1CSC(c2nc3ccc4cc(O)ccc4c3s2)=N1 (stereo not drawn) [PBI-5045, 2-(7-Hydroxynaphtho[2,1-d]thiazol-2-yl)-4,5-dihydrothiazole-4-carboxylic acid methyl ester] | successful use in reporting esterase activity |  |  |
| CC(C)C[C@H](N)C(=O)Nc1ccc2c(ccc3nc(C4=NC(C(=O)O)CS4)sc32)c1 (stereo partly drawn) [PBI-5044, 2-(7-(Leucinyl)aminonaphtho[2,1-d]thiazol-2-yl)-4,5-dihydrothiazole-4-carboxylic acid] |  | successful use in reporting protease activity | luminescence from each detected with little interference from the other |
